From patent US11578069B2, “Compounds for inhibition of α4 β7 integrin” (Gilead Sciences, Inc., priority 2019, dated 2023) come the findings set out here.

Assay [1] addresses T1, α4β7 integrin (Homo sapiens, UniProt P13612+P26010).
T1 construct: monitoring the capture of α4β7 integrin expressing cells; endogenous in cells; host or cells: RPMI8866
T1 sequence (P13612 34-1032): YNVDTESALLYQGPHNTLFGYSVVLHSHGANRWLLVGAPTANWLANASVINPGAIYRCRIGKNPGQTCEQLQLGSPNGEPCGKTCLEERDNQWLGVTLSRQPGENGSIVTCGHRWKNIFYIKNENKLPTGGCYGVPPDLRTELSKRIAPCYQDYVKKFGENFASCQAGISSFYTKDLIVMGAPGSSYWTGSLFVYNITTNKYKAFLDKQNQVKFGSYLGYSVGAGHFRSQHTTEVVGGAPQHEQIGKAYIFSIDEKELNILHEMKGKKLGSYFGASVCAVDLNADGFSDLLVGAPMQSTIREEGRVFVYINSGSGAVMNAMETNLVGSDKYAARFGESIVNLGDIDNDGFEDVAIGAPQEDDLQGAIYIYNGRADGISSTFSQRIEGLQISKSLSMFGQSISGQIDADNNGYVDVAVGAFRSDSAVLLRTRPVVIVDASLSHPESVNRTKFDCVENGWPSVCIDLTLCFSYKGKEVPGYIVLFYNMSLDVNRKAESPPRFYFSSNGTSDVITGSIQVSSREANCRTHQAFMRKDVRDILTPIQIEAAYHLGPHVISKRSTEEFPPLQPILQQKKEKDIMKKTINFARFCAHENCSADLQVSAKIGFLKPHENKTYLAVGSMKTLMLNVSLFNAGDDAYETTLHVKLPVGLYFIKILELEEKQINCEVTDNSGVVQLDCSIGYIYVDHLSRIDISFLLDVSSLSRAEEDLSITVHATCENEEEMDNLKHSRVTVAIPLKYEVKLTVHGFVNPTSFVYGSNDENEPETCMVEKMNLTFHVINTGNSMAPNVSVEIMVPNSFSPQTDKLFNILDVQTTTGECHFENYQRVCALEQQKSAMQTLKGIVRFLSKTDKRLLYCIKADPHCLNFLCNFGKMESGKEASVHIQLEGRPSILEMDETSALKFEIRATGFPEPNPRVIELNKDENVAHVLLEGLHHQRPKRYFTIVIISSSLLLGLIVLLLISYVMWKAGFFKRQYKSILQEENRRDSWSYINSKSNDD
T1 sequence (P26010 20-798): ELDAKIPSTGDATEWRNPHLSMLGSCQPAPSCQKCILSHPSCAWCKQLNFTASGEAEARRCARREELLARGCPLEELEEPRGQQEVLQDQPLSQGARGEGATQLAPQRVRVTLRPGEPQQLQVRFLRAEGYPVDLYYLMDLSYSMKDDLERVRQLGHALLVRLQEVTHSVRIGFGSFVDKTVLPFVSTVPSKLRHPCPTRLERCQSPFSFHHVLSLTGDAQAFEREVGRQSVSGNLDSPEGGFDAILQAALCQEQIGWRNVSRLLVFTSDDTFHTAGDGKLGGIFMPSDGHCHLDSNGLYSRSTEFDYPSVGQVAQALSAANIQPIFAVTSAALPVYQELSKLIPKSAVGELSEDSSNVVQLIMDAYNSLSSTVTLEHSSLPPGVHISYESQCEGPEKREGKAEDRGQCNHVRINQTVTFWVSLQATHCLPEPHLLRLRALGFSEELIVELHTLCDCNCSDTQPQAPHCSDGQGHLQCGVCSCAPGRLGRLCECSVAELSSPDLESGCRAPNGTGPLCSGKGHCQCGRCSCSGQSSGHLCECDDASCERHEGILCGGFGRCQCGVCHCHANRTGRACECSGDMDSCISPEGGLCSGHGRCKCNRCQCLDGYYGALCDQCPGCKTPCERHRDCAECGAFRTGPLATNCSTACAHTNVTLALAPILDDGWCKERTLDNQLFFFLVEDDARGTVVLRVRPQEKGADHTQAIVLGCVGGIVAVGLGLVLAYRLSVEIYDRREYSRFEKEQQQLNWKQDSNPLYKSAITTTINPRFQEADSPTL
In words: α4β7 Integrin Cell Capture Assay. The note with it: capture of α4β7 integrin expressing RPM18866 cells on MadCAM-1 extracellular domain-coated plate. Type of assay: cell-based. The procedure, abridged:
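RPM18866 cells were preincubated with compound for 1 h at 37 °C in DMEM with 0.5% FBS and 0.5 mM MnCl2. They were then allowed to adhere for 30 min at 37 °C to BSA-blocked plates coated with MAdCAM-1 extracellular domain (1.0 µg/mL). After glutaraldehyde/Hoechst fixation and washing, bound cells were counted by imaging, and EC50 was fitted from counts versus concentration.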

Assay [2] deals with T2, α4β1 integrin (Homo sapiens, UniProt P05556+P13612).
T2 construct: monitoring the capture of α4β1 expressing cells; endogenous in cells; host or cells: Jurkat
The experiment in a line: α4β1 Cell Capture Assay. Type of assay: cell-based. The note with it: capture of α4β1 expressing Jurkat cells on VCAM-1 extracellular domain-coated plate. The procedure, abridged: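 Jurkat cells in DMEM with 0.5% FBS and 0.5 mM MnCl2 preincubated 1 h at 37° C with compound, then allowed 30 min at 37° C to bind plates coated with recombinant VCAM-1 extracellular domain (0.5 μg/ml). After glutaraldehyde fixation and Hoechst staining, bound cells counted by imaging; EC50 from concentration–response.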

T2 sequence (P05556 21-798, one chain of several): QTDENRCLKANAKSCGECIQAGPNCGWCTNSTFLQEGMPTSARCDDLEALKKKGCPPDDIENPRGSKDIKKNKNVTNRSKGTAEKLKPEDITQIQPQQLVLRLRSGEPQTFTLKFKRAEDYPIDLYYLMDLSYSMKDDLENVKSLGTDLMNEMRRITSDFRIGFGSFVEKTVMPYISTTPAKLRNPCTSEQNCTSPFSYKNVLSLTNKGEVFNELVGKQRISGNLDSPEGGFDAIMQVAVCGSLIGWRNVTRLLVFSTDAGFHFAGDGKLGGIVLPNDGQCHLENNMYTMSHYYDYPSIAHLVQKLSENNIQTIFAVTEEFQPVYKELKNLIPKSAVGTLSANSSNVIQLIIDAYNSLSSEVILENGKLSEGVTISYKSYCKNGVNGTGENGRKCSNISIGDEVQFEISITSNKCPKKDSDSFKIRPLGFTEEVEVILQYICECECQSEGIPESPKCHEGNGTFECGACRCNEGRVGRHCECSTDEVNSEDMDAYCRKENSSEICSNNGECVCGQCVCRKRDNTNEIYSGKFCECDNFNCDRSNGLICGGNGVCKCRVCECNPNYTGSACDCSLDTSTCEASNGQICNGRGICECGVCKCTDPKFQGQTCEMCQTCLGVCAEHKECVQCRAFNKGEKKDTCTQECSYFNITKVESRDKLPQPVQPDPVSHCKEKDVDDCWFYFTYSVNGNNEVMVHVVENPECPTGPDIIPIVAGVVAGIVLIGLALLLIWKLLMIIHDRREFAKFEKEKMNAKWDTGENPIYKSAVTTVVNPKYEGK

Usually EC50 stands for the midpoint of the concentration-response curve. Read a high EC50 as lower potency in that assay. As to `Cc1cc(N2CCOC[C@@H]2C(F)(F)F)cc(F)c1C(=O)N[C@@H](Cc1ccc(-n2c(=O)c3ccncc3n(C)c2=O)cn1)C(=O)O` [Example 23, (S)-2-(2-fluoro-6-methyl-4-((R)-3-(trifluoromethyl)morpholino)benzamido)-3-(5-(1-methyl-2,4-dioxo-1,4-dihydropyrido[3,4-d]pyrimidin-3(2H)-yl)pyridin-2-yl)propanoic acid], the figures for the EC50 in assay [1] (Table 1) and in assay [2] (Table 1) were 0.2 nM and 9.8 nM, respectively.

As for `COc1cc(C[C@H](NC(=O)c2c(F)cc(N3CCOC[C@@H]3C(F)(F)F)cc2F)C(=O)O)ccc1-n1c(=O)c2ccncc2n(C)c1=O` [Example 53], the EC50 in assay [1] (Table 2) was found to be 0.2 nM; in assay [2] (Table 2) it was 18.6 nM.

On to `Cc1cc(N2CCOC[C@@H]2CC(F)F)cc(F)c1C(=O)N[C@@H](Cc1ccc(-n2c(=O)c3c(n(C)c2=O)CCOC3)cc1)C(=O)O` [Example 57, (S)-2-(4-((S)-3-(2,2-difluoroethyl)morpholino)-2-fluoro-6-methylbenzamido)-3-(4-(1-methyl-2,4-dioxo-1,5,7,8-tetrahydro-2H-pyrano[4,3-d]pyrimidin-3(4H)-yl)phenyl)propanoic acid], for which the EC50 is 0.2 nM in assay [1] (Table 1) and 2.8 nM in assay [2] (Table 1).

On to `Cc1cc(N2CCOC[C@H]2CC(F)F)cc(F)c1C(=O)N[C@@H](Cc1ccc(-n2c(=O)c3ccncc3n(C)c2=O)nc1)C(=O)O` [Example 85], for which the figures for the EC50 in assay [1] (Table 2) and in assay [2] (Table 2) were 3.9 nM and 17.9 nM, respectively.

On to `Cc1cc(N2CCOC[C@@H]2C(F)(F)F)cc(F)c1C(=O)N[C@@H](Cc1ccc(-n2c(=O)c3ccncc3n(C)c2=O)c(C(F)(F)F)c1)C(=O)O` (atropisomer, axis not shown) [Example 90], for which the EC50 was determined as 0.7 nM in assay [1] (Table 2) and 9.7 nM in assay [2] (Table 2).

Turning to `CC[C@@H](Nc1cc(F)c(C(=O)N[C@@H](Cc2ccc(-c3c(C(F)(F)F)cc(=O)n(C)c3C)cc2)C(=O)O)c(F)c1)C(F)(F)F` [Example 2, (S)-2-(2,6-difluoro-4-(((R)-1,1,1-trifluorobutan-2-yl)amino)benzamido)-3-(4-(1,2-dimethyl-6-oxo-4-(trifluoromethyl)-1,6-dihydropyridin-3-yl)phenyl)propanoic acid], the EC50 turned out to be 13.6 nM in assay [1] (Table 1) and 905 nM in assay [2] (Table 1).

With `Cc1cc(N2CCOC[C@@H]2C(F)(F)F)cc(F)c1C(=O)N[C@@H](Cc1ccc(-n2c(=O)c3ccncc3n(C)c2=O)c(OC(F)(F)F)c1)C(=O)O` (atropisomer, axis not shown) [Example 92], the EC50 in assay [1] (Table 2) was 0.2 nM; in assay [2] (Table 2), 1.3 nM.

On to `Cc1cc(N2CCOC[C@@H]2C(F)(F)F)cc(F)c1C(=O)N[C@@H](Cc1cc(F)c(-n2c(=O)c3ccncc3n(C)c2=O)c(F)c1)C(=O)O` [Example 80], for which the EC50 in assay [1] (Table 2) worked out at 0.06 nM; in assay [2] (Table 2) it was 2.1 nM.

Turning to `COc1cc(C)n(C)c(=O)c1-c1ccc(C[C@H](NC(=O)c2c(F)cc(N3CCOC[C@@H]3C(F)(F)F)cc2F)C(=O)O)cc1` [Example 30], the EC50 in assay [1] (Table 2) came out at 0.5 nM; in assay [2] (Table 2), 10.1 nM.

As to `Cc1cc(N2CCOC[C@@H]2CC(F)F)cc(F)c1C(=O)N[C@@H](Cc1ccc(-n2c(=O)c3c(n(C)c2=O)COC3)cc1)C(=O)O` [Example 70, (S)-2-(4-((S)-3-(2,2-difluoroethyl)morpholino)-2-fluoro-6-methylbenzamido)-3-(4-(1-methyl-2,4-dioxo-1,2,5,7-tetrahydrofuro[3,4-d]pyrimidin-3(4H)-yl)phenyl)propanoic acid], the EC50 in assay [1] (Table 1) stood at 3.9 nM; in assay [2] (Table 1) it was 2.4 nM.

`Cc1cc(N2CCOC[C@@H]2C(F)(F)F)cc(F)c1C(=O)N[C@@H](Cc1ccc(-n2c(=O)c3cc(C#N)ccc3n(C)c2=O)nc1)C(=O)O` [Example 74]: the EC50 in assay [1] (Table 2) came out at 0.14 nM; in assay [2] (Table 2), 5.2 nM.

For `Cc1cc(C(F)(F)F)c(-c2ccc(C[C@H](NC(=O)c3c(F)cc(N4CCOC[C@@H]4C(F)(F)F)cc3F)C(=O)O)cc2F)c(=O)n1C` [Example 6, (S)-2-(2,6-difluoro-4-((R)-3-(trifluoromethyl)morpholino)benzamido)-3-(4-(1,6-dimethyl-2-oxo-4-(trifluoromethyl)-1,2-dihydropyridin-3-yl)-3-fluorophenyl)propanoic acid], the EC50 worked out at 0.3 nM in assay [1] (Table 1) and 9.9 nM in assay [2] (Table 1).

On to `Cc1cc(N2CCOC[C@@H]2C(F)(F)F)cc(F)c1C(=O)N[C@@H](Cc1ccc(-n2c(=O)c3c(n(C)c2=O)CCOC3)nc1)C(=O)O` [Example 68, (S)-2-(2-fluoro-6-methyl-4-((R)-3-(trifluoromethyl)morpholino)benzamido)-3-(6-(1-methyl-2,4-dioxo-1,5,7,8-tetrahydro-2H-pyrano[4,3-d]pyrimidin-3(4H)-yl)pyridin-3-yl)propanoic acid], for which the EC50 in assay [1] (Table 1) stood at 0.3 nM; in assay [2] (Table 1) it was 14.9 nM.

`Cc1cc(N2CCOC[C@H]2CC(F)(F)F)cc(F)c1C(=O)N[C@@H](Cc1ccc(-n2c(=O)c3ccncc3n(C)c2=O)nc1)C(=O)O` [Example 86]: the EC50 was determined as 4.2 nM in assay [1] (Table 2) and 46.1 nM in assay [2] (Table 2).

For `Cc1cc(N2CCOC[C@@H]2C(F)(F)F)cc(F)c1C(=O)N[C@@H](Cc1ccc(-n2c(=O)c3c(C#N)cccc3n(C)c2=O)nc1)C(=O)O` [Example 72], the EC50 in assay [1] (Table 2) was 0.18 nM; in assay [2] (Table 2), 4 nM.
